# Measured values published in patent US5986131A, “RXR selective ligands” (Hoffmann-La Roche Inc., priority 1997, dated 1999).
# Tests used:
# RXRα = target: T1, RXRα (Homo sapiens, UniProt P19793); test: RXRα activation (transactivation); type: cell-based; settings: Table 1; read-out: Activation ED50, RXRα
# T1 sequence (P19793 1-462): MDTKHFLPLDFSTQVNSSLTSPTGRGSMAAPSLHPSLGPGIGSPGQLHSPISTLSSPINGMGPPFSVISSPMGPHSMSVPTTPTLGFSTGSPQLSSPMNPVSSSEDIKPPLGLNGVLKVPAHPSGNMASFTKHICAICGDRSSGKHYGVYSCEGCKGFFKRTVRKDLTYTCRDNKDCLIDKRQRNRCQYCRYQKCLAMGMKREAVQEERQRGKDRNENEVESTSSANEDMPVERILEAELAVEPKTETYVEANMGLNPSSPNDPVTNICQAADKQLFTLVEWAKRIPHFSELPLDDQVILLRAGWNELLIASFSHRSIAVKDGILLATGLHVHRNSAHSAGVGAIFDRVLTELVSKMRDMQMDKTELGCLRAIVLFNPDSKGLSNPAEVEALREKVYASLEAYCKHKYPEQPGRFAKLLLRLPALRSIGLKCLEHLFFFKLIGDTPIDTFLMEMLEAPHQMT
# Text: Methods essentially as described in those publications were used to determine the binding and transactivation properties of retinoids reported in the Examples herein.
# Rhino mouse utricles = test: Rhino mouse utricle reduction activity; type: in vivo, Rhino mice; settings: topical; for Utricle Size: 3 weeks; for Utricle size % Change from Control: ns = not statistically significant, others p<0.05
# Protocol: Compounds were dissolved in 100% acetone and stored at 4° C. for the duration of the experiment under nitrogen. […] One day after the last dose, the mice were sacrificed by CO2 inhalation. […] The epidermis was then separated from the dermis.
# The samples were kept in each of the above solutions for 2 hours. The skin samples were removed from the xylene and mounted on glass microscope slides. Image analysis, using the Ultimage image analysis software, was used to determine the mean diameter and area of utricles. Approximately 5 fields per sample were examined, for an average of 150 utricles per mouse measured.
# [1] = test system: Hamster Ear Sebaceous Gland; test: Effect on size of sebaceous glands of Golden Syrian hamsters; type: in vivo; parameters: Sebaceous Gland Size: unit not given here; settings: 4 weeks topical dosing
# Protocol: Charles River Golden Syrian male hamsters were given the desired dose in acetone. The compounds were stored at 4° C. protected from light. Fresh solutions were made up weekly.
# Hamsters were dosed daily for five days, rested for two days, and dosed again for five days until 20 doses were given. The volume of solution was 50 microliters per ear.
# Hamsters were sacrificed by CO2 inhalation, and the ears removed for histological evaluation. One ear was removed and the ventral surface separated from the rest of the ear. A 2 mm punch was removed 5 mm from the tip of the ear and stained in 0.1 % Sudan Black B dissolved in 100% propylene glycol overnight. After destaining, the size of sebaceous glands was quantified with a Donsanto Image Analysis System.
# Data are given as the average area of 80-120 sebaceous glands per dose, as percent of the control (solvent-treated) sections.
smiles,measurement,setting,value
"CC1=C(/C=C/C2=C(/C=C/C(C)=C/C(=O)O)CCCC2)C(C)(C)CCC1 [Example 4, (2E,4E)-3-Methyl-5-(2-((E)-2(2,6,6-trimethyl-1-cyclohexen-1-yl)ethenyl)-1-cyclohexen-1-yl)-2,4-pentadienoic acid]",EC50,RXRα,1.7 nM
same,Utricle Size,Rhino mouse utricles; 0.1 μg/day,9843 ± 565 μm^2 / utricle
same,Utricle size % Change from Control,Rhino mouse utricles; 0.1 μg/day,+1%
same,Utricle Size,Rhino mouse utricles; 1 μg/day,9491 ± 507 μm^2 / utricle
same,Utricle size % Change from Control,Rhino mouse utricles; 1 μg/day,-3%
same,Utricle Size,Rhino mouse utricles; 10 μg/day,8951 ± 964 μm^2 / utricle
same,Utricle size % Change from Control,Rhino mouse utricles; 10 μg/day,-8%
same,Utricle Size,Rhino mouse utricles; 100 μg/day,5916 ± 992 μm^2 / utricle
same,Utricle size % Change from Control,Rhino mouse utricles; 100 μg/day,-39%
same,Sebaceous Gland Size,[1]; 1 μg/day,13237 ± 1491
same,Sebaceous gland size % Change from Control,"[1]; 1 μg/day, ns = not statistically significant",-20%
same,Sebaceous Gland Size,[1]; 10 μg/day,17046 ± 4667
same,Sebaceous gland size % Change from Control,"[1]; 10 μg/day, ns = not statistically significant",+3%
same,Sebaceous Gland Size,[1]; 100 μg/day,13043 ± 1577
same,Sebaceous gland size % Change from Control,[1]; 100 μg/day,-21%
